System: PD-L1 on CD34+ cells
Assay: 7-day culture of CD34+ cells with PGE2 and hematopoietic cytokines (STFIA medium), PD-L1+CD34+ by FACS
Assay type: cell-based, human
Settings: for increase in the percentage of PD-L1+CD34+ cells: 7 days, STFIA medium, PGE2 10 μM
Experimental: FIGS. 18A-18J show effects of human PGE2-modulated and cytokine-treated CD34^+ cells. […] (FIG. 18C) Effect of PGE2 pulsing on CD34^+ cells cultured for 0, 24 h, 72 h and 6 days on PD-L1 expression on CD34^+ cells. (FIG. 18D-18E) Bar graphs showing an increase in the number of PD-L1^+CD34^+ cells and fold increase in cell number after 7 days of culture with PGE2 supplemented with cytokines. (FIG. 18F-18G) Upregulation of PD-L1 expression following culture with PGE2 (shown as percentage) on CD34^+ cells was not altered by the freeze/thawing process. (FIG. 18H) PGE2-modulated CD34^+ cells abrogate the IFN-γ autoimmune response to insulin-associated 2 (I-A2) autoantigen in vitro, as measured via the quantification of IFN-γ-producing cells in an Elispot assay; […]. (FIG. 18I) PGE2-modulated CD34^+ cells and PGE2-modulated CD34^+ cells cultured for 7 days in STFIA media abrogate the IFN-γ autoimmune response towards insulin-associated 2 (I-A2) autoantigen in vitro, as measured via the quantification of IFN-γ-producing cells in an Elispot assay, even when added at low dose. (FIG. 18J) PGE2-modulated CD34^+ cells abrogate the anti-CD3/CD28-stimulated PBMC response in vitro as measured via the quantification of IFN-γ-producing cells in an Elispot assay. […] Abbreviations: SCF, stem cell factor; TPO, thrombopoietin; hFGF-1, human fibroblast growth factor 1; IGFBP2, insulin-like growth factor-binding protein 2; Angptl3, angiopoietin-like 3; PBMCs, peripheral blood mononuclear cells.
Pharmacological modulation of human CD34+ cells. […] Data were analyzed using FlowJo software version 8.7.3 (Treestar, Ashland, OR). […]
PGE2 highly augments PD-L1 expression in human HSPCs when supplemented with hematopoietic cytokine. […] PD-L1+ HSPCs were then quantified by FACS analysis at different time points post-culture. […]

CCCCC[C@H](O)/C=C/[C@H]1[C@H](O)CC(=O)[C@@H]1C/C=C\CCCC(=O)O [PGE2, prostaglandin E2]
increase in the percentage of PD-L1+CD34+ cells (HSPCs from T1D): ~5 fold | PD-L1 expression pre- and post-cryopreservation (fresh vs frozen HSPCs, 7 days STFIA media pulsed with PGE2): Sustained and conserved | increase in the percentage of PD-L1+CD34+ cells (healthy control patients): ~2 fold

From patent US11879137B2, “Treatment of type 1 diabetes and autoimmune diseases or disorders” (THE CHILDREN'S MEDICAL CENTER CORPORATION, priority 2017, dated 2024)
